Results taken from patent US9789117B2, “Use of sigma ligands in diabetes type-2 associated pain” (LABORATORIOS DEL DR. ESTEVE, S.A., priority 2011, dated 2017).
Entries after “also recorded” stand apart in the source; their conditions may differ. Counter-ions that a name gives are not always drawn.

What was measured:
Format in all cases: in vivo, rat
[1] = system: male ZDF (Zucker Diabetic Fatty) rats; experiment: Plantar test (thermal hyperalgesia, withdrawal latency); details: for effect on thermal hyperalgesia (plantar test), acute treatment: single 64 mg/kg i.p., compared with week 7 baseline, 64 mg/kg
Protocol: (§1) The example 1 was dissolved in physiological saline (0.9%) and pH was corrected to 5 with NaOH. The compound was administered by the intraperitoneal (i.p.) route. The doses of drug employed in the present study were 64 mg/kg i.p. for acute administration and 25 mg/kg i.p. twice a day (BID) for the chronic treatment during 14 days. The compound and the saline (vehicle) adjusted at pH 5, were administered in a volume of 0.5 ml.
(§2) All experimental protocols were performed in strict accordance with the EC regulation for care and use of experimental animals (86/609/EEC). Studies were performed with male ZDF (Zucker Diabetic Fatty) rats (ZDF/Gmi, fa/fa) obtained from Charles Rivers Genetic Models Inc. 6 week old rats were housed in groups of two in standard transparent cages, under a 12 light-dark cycle, and animals were maintained on Purina 5008 (16.7 kcal % fat) diet and sterile tap water, available ad libitum. Nonfasting blood glucose levels and body weight were regularly monitored.
(§3) Acute example 1: animals received one injection (0.5 ml) of example 1 (64 mg/kg i.p.) 30 minutes before behavioral testing (n=8).
(§4) Chronic example 1: animals received one injection (0.5 ml) of example 1 (25 mg/kg BID, for 14 days) (n=8). Behavioral tests were performed once a week during the treatment, and one week after the last administration they were sacrificed and electrophysiological and cardiovascular experiments were carried out.
Thermal (heat) hyperalgesia (heat-nociception) was tested using a 37370 plantar test apparatus (Ugo Basile, Comerio VA, Italy). The withdrawal latency from a focused beam of radiant heat applied to the mid plantar surface of the hindpaws was recorded. The intensity of light was adjusted at the start of the experiment such that the control average baseline latencies were about 8 s and a cut-off latency of 30 s was imposed. The withdrawal latency of each paw was measured and the mean value was used for data analysis. The antihyperalgesic effect of the treatment was evidenced as an increase in the withdrawal latency respect to control baseline latencies.
Plantar test results are expressed as the percentage of the mean of thermal latency obtained from both hindpaws.
Data are expresses as mean+standard error mean (SEM). Statistical analysis of drug effects for significant differences between multiple groups were performed by analysis of variance (ANOVA), followed, when appropriate, by post-hoc Newman-Keuls test or Bonferroni Test. P<0.05 was considered as statistically significant.

[2] = system: male ZDF (Zucker Diabetic Fatty) rats; experiment: Von Frey test (mechanical allodynia, pressure threshold)
Protocol: as §1, §2, §3, §4
Mechanical allodynia was assessed using an electronic Von Frey apparatus (EVF3, Bioseb, BP89, Chaville Cedez, France). Rats were placed individually on an elevated iron mesh floor, covered by a transparent plastic cage and were allowed to adapt to the testing environment for at least 15 minutes. The test was done by applying the von Frey filament through the mesh floor to the plantar surface of each hindpaw.
The test was performed three times with approximately 3 min interval between trials. The mean of the three trials was used for data analysis. […]
Von Frey test results are expressed as the percentage of the mean of mechanical threshold obtained from both hindpaws. […]

[3] = system: male ZDF (Zucker Diabetic Fatty) rats; experiment: Spontaneous locomotor activity (photocell activity chambers)
Protocol: as §1
as §2, with “monitored. […]” for “monitored.”
it was evaluated using individual photocell activity chambers (Cibertec, Spain). Rats were placed in the recording chambers (55×40 cm, spacing between beams 3 cm) […] after drug administration, and the number of interruptions of photocell beams was recorded over a 30-min period.
Spontaneous locomotor activity is expressed as the percentage of the mean number of crossings of the photocell beams over 30 minutes. […]

[4] = system: Aδ-fibres of ZDF rats; experiment: Skin-nerve preparation and electrophysiological recordings (saphenous nerve Aδ-fibres, mechanical stimulation) after chronic treatment
Protocol: as §4
3.2 Skin—Nerve Preparation and Electrophysiological Recordings
In order to minimize pain or discomfort, animals were killed by cervical dislocation. The saphenous nerve and its innervating territory on the hairy hindpaw skin were subcutaneously dissected and excised. […] Neuronal activity was recorded using gold-wire electrodes. Small filaments of the nerve were repeatedly split with sharpened forceps until a single unit activity could be recorded from them. […] Spikes were later analyzed offline using the SPIDI software.
Units were first identified by manual probing of the skin with a blunt glass rod that exerts a pressure of more than 500 mN to search for their receptive field (RF). […] In order to characterize the units, we assessed their conduction velocity (CV) by electrically stimulating the RF with supramaximal square-wave pulses (pulse width, 0.5 ms; train frequency, 0.2 Hz; variable intensity) with a Teflon-coated steel microneurography electrode (shaft diameter 1 mm, bare tip diameter 5-10 μm impedance 1-5 MΩ); an indifferent electrode was placed nearby in the organ bath. […]

[5] = ZDF rats, 25 mg/kg i.p. BID for 14 days (week 13 to 15)
[6] = chronic treatment 25 mg/kg for 14 days, twice a day

Cc1cc(OCCN2CCOCC2)nn1-c1ccc2ccccc2c1 [Example 1, 4-{2-[5-methyl-1-(naphthalen-2-yl)-1H-pyrazol-3-yloxy]ethyl}morpholine hydrochloride]
increase of the latency to hindpaw withdrawal in response to thermal stimulation (plantar test) ([1]; ZDF rats aged 13 weeks, acute 64 mg/kg i.p., 30 minutes before test, mean±SEM, vehicle 12.6±6.9%): 25.5±9.1% | effect on thermal hyperalgesia (plantar test), acute treatment ([1]; ZDF rats aged 13 weeks, hydrochloride): reversed thermal hyperalgesia | effect on thermal hyperalgesia (plantar test), acute treatment ([1]; ZDF rats aged 13 weeks, listed as example 1, hydrochloride): restored baseline values; also recorded: reversed the changes in the thresholds | effect on thermal hyperalgesia (plantar test), chronic treatment [1, 5]: completely reversed | tolerance to the antihyperalgesic effect [1, 6]: No tolerance | effect on mechanical allodynia (Von Frey test), acute treatment ([2]; ZDF rats aged 13 weeks, single 64 mg/kg i.p., compared with week 7 baseline, listed as example 1, hydrochloride, 64 mg/kg): restored baseline values; also recorded: the mechanical allodynia was reversed; also recorded: reversed the changes in the thresholds | effect on mechanical allodynia (Von Frey test), chronic treatment [2, 5]: completely reversed | tolerance to the antiallodynic effect [2, 6]: No tolerance | spontaneous locomotor activity, chronic treatment ([3]; 25 mg/kg i.p. BID for 14 days, vs pretreatment values): no differences | spontaneous locomotor activity, acute treatment ([3]; single 64 mg/kg i.p.): not significantly different | threshold of response to the mechanical stimulation (electrophysiological recording) ([4]; 25 mg/kg i.p. BID for 14 days, vs vehicle-treated ZDF rats): reduced the threshold | hyperreactivity in response to mechanical stimulation in electrophysiological recordings (Aδ-fibres) ([4]; chronic treatment, conclusion): reduction of the hyperreactivity
